# What was measured:
# [1] = Offspring fasting glucose (Example 1); assay type: in vivo, mice
# Protocol: Female C57BL/6N mice were raised in 12 hour light:dark cycles on Teklad 2920X chow (NC). For 12 weeks prior to mating with a single C57BL/6N male, females were on either NC (n=4) or NC+NR (n=4). Females were maintained on the same diet through gestation and weaning, which was at 21 days after birth. […] The mild hypoglycemia of mice on standard chow was not expected and the improvement in glycemic control by virtue of supplementing mothers was unexpected.
# [2] = tested on: lipid biosynthetic genes and lactose biosynthetic genes; experiment: Mammary lipid and lactose biosynthetic gene expression; assay type: in vivo, mice; conditions: NR in the diet
# Text: (§1) FIGS. 13A-D. NR boosts prolactin circulation and mammary biosynthetic pathways for protein, fat and carbohydrate. FIG. 13A. Prolactin levels in plasma from dam on NC or NR chow. FIG. 13B. mTOR pathway is activated in NR-supplemented mammary tissue. FIG. 13C. Genes involved in lipid biosynthesis are activated in NR-supplemented mammary tissue. FIG. 13D. Genes involved in lactose synthesis pathway are activated in NR-supplemented mammary tissue. […] In addition, the size of the mammary tissue itself is greater in NR-supplemented mothers than in non-supplemented mothers (FIG. 14A).
# [3] = tested on: prolactin; experiment: Prolactin levels in plasma from dam; assay type: in vivo, mice; conditions: plasma from dam on NC or NR chow
# Text: as §1
# [4] = tested on: NAD biosynthetic genes in the liver; experiment: Hepatic NAD biosynthetic gene expression and NAD metabolites; assay type: in vivo; conditions: lactating mice with vs without NR
# Text: Lactation boosts NAD biosynthetic genes (FIG. 11A) and NAD levels (FIG. 11B) in the liver. […]. Lactation seems to depress levels of NR (FIG. 11C) and Nam (FIG. 11D) in the liver.
# [5] = Post-partum NR supplementation: maternal body mass, food consumption, body composition; assay type: in vivo, mice; conditions: NR only after birth
# Text: FIGS. 6A-D. NR-supplemented mouse mothers lose weight during the 21 day lactation period without diminished food consumption (day 7-21). Delta body mass refers to day 21 post-partum maternal weight minus day 0 post-partum weight (FIG. 6A). Food consumption was day 7-21 (FIG. 6B). NR-supplemented mothers tend to lose fat (FIG. 6C) and maintain lean mass (FIG. 6D). Body composition refers to day 21 post-partum maternal fat and lean mass minus day 0 post-partum maternal fat and lean mass. A series of in vivo murine experiments were performed to evaluate whether maternally supplemented NR has the ability to improve maternal and neonatal health and development.
# [6] = tested on: PEPCK; experiment: Pup liver gluconeogenic gene expression; assay type: in vivo, mice; conditions: males and females whose mothers were NR-supplemented
# Text: FIGS. 17A-C. 22 day old pups of NR-supplemented mothers have improved post-fasting glucose homoeostasis with higher gluconeogenic gene expression and higher hepatic glycogen storage. Not only are the offspring of NR-supplemented mothers a bit bigger, they also have better glycemic control. This is due to better gluconeogenic gene expression and higher glycogen storage. The order of the bars from left to right are: males of normal chow (NC) mothers (white with light grey outline), followed by males of NR-supplemented mothers (filled light grey), followed by females of NC mothers (white with dark grey outline), followed by females of NR-supplemented mothers (filled dark grey). Earlier it was shown that supplementation of females during their pregnancy and during the lactation period with NR produced pups with better glycemic control. […] Particularly as NR is not directly transmitted to offspring of NR-supplemented mothers, none of these effects of maternally supplemented NR could have been anticipated.
# [7] = tested on: mTOR pathway; experiment: phospho-mTOR in mammary tissue; assay type: in vivo, mice; conditions: NR-supplemented mothers
# Text: as §1
# [8] = Dark/light chamber test of offspring; assay type: in vivo, mice
# Text: FIGS. 20A-C. […] The order of the bars from left to right are: males of normal chow (NC) mothers (white with light grey outline), followed by males of NR-supplemented mothers (filled light grey), followed by females of NC mothers (white with dark grey outline), followed by females of NR-supplemented mothers (filled dark grey). It was considered interesting that males and female adults of NR-supplemented mothers maintain distinct physical advantages into adulthood on the basis of the mother's micronutrition. […] This could be interpreted either as a simple increase in activity and/or a less anxious state of being.
# [9] = Milk production, oxytocin-induced milk collection (Example 1); assay type: in vivo, mice; conditions: collected volume per mother after oxytocin, days 0, 7, 14 and 21 after partum; NC+NR vs NC
# Protocol: Female C57BL/6N mice were raised in 12 hour light:dark cycles on Teklad 2920X chow (NC). For 12 weeks prior to mating with a single C57BL/6N male, females were on either NC (n=4) or NC+NR (n=4). Females were maintained on the same diet through gestation and weaning, which was at 21 days after birth.
# To determine the production of milk, we separated mothers were separated from pups for several hours and provided an injection of oxytocin on days 0, 7, 14 and 21 after partum. Milk was carefully collected by pipetting and the collected volume per mother was plotted. The galactogogue activity of NR was striking and entirely unexpected.
# [10] = tested on: UCP1; experiment: UCP1 expression in mammary tissue; assay type: in vivo, mice; conditions: NR-supplemented vs NC mothers
# Text: (§2) FIGS. 14A-B. Postpartum NR supplementation promotes mammary gland development (n=5 mice per group) (FIG. 14A). NR increases heat loss by increasing expression of UCP1 (FIG. 14B). […] In addition, the size of the mammary tissue itself is greater in NR-supplemented mothers than in non-supplemented mothers (FIG. 14A).
# [11] = Post-partum NR supplementation: milk volume and macronutrient density; assay type: in vivo, mice
# Protocol: FIGS. 8A-C. Milk from NR-supplemented mothers had normal macronutrient density. Oxytocin-induced milk collection at indicated days. Protein (FIG. 8A), carbohydrate (FIG. 8B) and lipid concentration (FIG. 8C) was not changed. A series of in vivo murine experiments were performed to evaluate the effects of nicotinamide riboside on milk production. […] As shown in FIGS. 8A-C, the concentration of protein, carbohydrate and fat in the milk of NR-supplemented mothers was normal. Because there is approximately 2-fold more milk produced by NR-supplemented mothers, NR-supplemented mothers transmit more calories to their offspring, which thereby assists maternal weight loss and neonatal development. In FIG. 9A, the concentration of NAD precursor vitamins in the milk from control mothers and NR-supplemented mothers was determined. […] Oral NR was labeled with heavy atoms in the nicotinamide and ribose moieties of NR and this was provided to lactating mothers by gavage.
# [12] = Mammary gland development (size of mammary tissue); assay type: in vivo, mice; conditions: NR-supplemented vs non-supplemented mothers
# Text: as §2
# [13] = supplementing post-gestational mothers
smiles,measurement,setting,value
"NC(=O)c1ccc[n+]([C@@H]2O[C@H](CO)[C@@H](O)[C@H]2O)c1 [NR, nicotinamide riboside]","glucose after an overnight fast, mice raised by NR-supplemented mothers",[1],better at maintaining glucose
same,mammary lactose biosynthetic genes,[2],strongly induced
same,mammary lipid biosynthetic genes,[2],strongly induced
same,circulating prolactin,[3],very high levels
same,NAD biosynthetic genes and NAD levels in the liver,[4],does not superinduce
same,hepatic NAD biosynthetic gene expression,[4],did not further increase
same,levels of NR and Nam in the liver,[4],depresses the accumulation of these metabolites in the liver even more
same,maternal food consumption,[5]; day 7-21,as least as much as non-supplemented mothers
same,maternal body weight,[5]; day 21 minus day 0 post-partum,lost significant weight
same,maternal fat mass,[5]; day 21 minus day 0 post-partum,"lost significant weight, specifically in fat mass"
same,maternal lean mass,[5]; day 21 minus day 0 post-partum,maintained their lean mass
same,liver expression of the gluconeogenic bypass gene PEPCK,[6],higher
same,phosph-mTOR in mammary,[7],higher level
same,time in the light,[8]; 75 day-old female offspring,spend more time in the light
same,time in the light chamber of a dark/light chamber,"[8]; 75 days of age, offspring of NR-supplemented mothers",more willing to spend time in the light chamber
same,increase in milk production,[9],2-3 x
same,expression of UCP1 in mammary tissue,[10],increase in expression
same,concentration of carbohydrate in the milk,[11]; NR-supplemented mothers,normal
same,concentration of fat in the milk,[11]; NR-supplemented mothers,normal
same,concentration of protein in the milk,[11]; NR-supplemented mothers,normal
same,milk produced vs non-supplemented mothers,[11]; [13],approximately 2 fold
same,milk production,[11]; [13],large increase
same,size of the mammary tissue,[12],greater

# From patent publication US11633421B2, “Use of NAD precursors for improving maternal health and/or offspring health” (UNIVERSITY OF IOWA RESEARCH FOUNDATION, priority 2016, dated 2023)
